Measurements: publication PMC8752837, “Structural basis of BAK activation in mitochondrial apoptosis initiation” (Nature Communications, 2022)
Substitutions are numbered along the chain they refer to.

Experiments:
[1] = molecular target: T1, Human BAK-∆TM-His6 (BAK) (Homo sapiens, UniProt Q16611); test: Liposome permeabilization assay (ANTS/DPX dye release from LUVs): activation of WT BAK by BH3 peptides; format: biochemical; settings: 50 nM BAK; EC50 from AUC vs peptide dose, data in Supplementary Figure 7c; 37 °C, 90 min; read-out: Liposome permeabilization EC50
T1 construct: C-terminus truncated recombinant human BAK containing C-terminal 6× histidine tag (MEAS-BAK); made in house; host or cells: E. coli T7 Express pLac I/Y
T1 sequence (Q16611 1-186 limits assumed): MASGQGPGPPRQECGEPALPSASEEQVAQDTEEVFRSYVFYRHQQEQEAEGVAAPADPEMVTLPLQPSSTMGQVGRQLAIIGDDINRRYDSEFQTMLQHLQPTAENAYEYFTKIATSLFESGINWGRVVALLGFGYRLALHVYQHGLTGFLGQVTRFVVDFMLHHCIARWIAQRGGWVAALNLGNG
Description: We performed liposome permeabilization assays as previously described[43]–[46]. […] We mixed the lipid film in ANTS/DPX solution by vortexing and sonication (~15 min) followed by extrusion through polycarbonate membrane of 2 μm pore size (Avanti Polar lipids) to generate homogenous large unilamellar vesicles (LUVs). We separated LUVs from free ANTS/DPX by S500 size exclusion chromatography and stored them at 4 °C in the dark. We prepared peptide and protein dilutions in 96-well black flat bottom plates (Costar) kept on ice. […] We quantified liposome permabilization by integrating area under curve (AUC) of normalized traces based on the Simpson’s equation, and analyzed that data in Excel and GraphPad Prism. AUC measurements reflect the kinetic and extent of liposome permeabilization and provide quantitative means for comparison between different experimental conditions (e.g., BAK mutants with gross or partial variation in activity).

[2] = molecular target: T2, I81R(3) BAK (Homo sapiens, UniProt Q16611, I81R); test: Liposome permeabilization assay: BH3 peptide activation of I81R(3) BAK receptor; format: biochemical; settings: 200 nM protein receptor; rebuttal, earlier Figure 7c; read-out: EC50 in liposome permeabilization upon direct activation of I81R BAK
T2 construct: C-terminus truncated recombinant human BAK containing C-terminal 6× histidine tag (MEAS-BAK); made in house; host or cells: E. coli T7 Express pLac I/Y
T2 sequence (Q16611 1-186 I81R limits assumed): T1 sequence (Q16611 1-186 limits assumed) with I81R
Description: We next compared activation of mutant BAK receptors by WT BID BH3 and WT BAK BH3 peptide ligands. At concentrations above 1 µM, both peptide ligands would activate WT or V74A(1) BAK (Supplementary Figs. 3e, 4d, e, and Supplementary Table 1).
We performed liposome permeabilization assays as previously described[43]–[46]. […] (nickel salt) [DGS NTA(Ni), 2.5 μM final concentration in each assay] (Avanti Polar Lipids). We prepared 12.5 mM fluorophore; 8-aminonaphthalene-1, 3, 6-trisulfonic acid, disodium salt (ANTS) and 45 mM quencher; p-xylene-bis-pyridiniumbromide (DPX) in LUV buffer (10 mM HEPES pH 6.8, 200 mM KCl and 5 mM MgCl2). We mixed the lipid film in ANTS/DPX solution by vortexing and sonication (~15 min) followed by extrusion through polycarbonate membrane of 2 μm pore size (Avanti Polar lipids) to generate homogenous large unilamellar vesicles (LUVs). We separated LUVs from free ANTS/DPX by S500 size exclusion chromatography and stored them at 4 °C in the dark. We prepared peptide and protein dilutions in 96-well black flat bottom plates (Costar) kept on ice. ANTS release from permeabilized liposomes causes an increase in fluorescence, which we monitored at 37 °C for 90 min using a CLARIOSTAR microplate reader (BMG Labtech) set at excitation and emission wavelengths of 360 and 530 nm, respectively. We normalized the data relative to maximum and minimum fluorescence induced by 3% CHAPS and buffer controls, respectively. We quantified liposome permabilization by integrating area under curve (AUC) of normalized traces based on the Simpson’s equation, and analyzed that data in Excel and GraphPad Prism. AUC measurements reflect the kinetic and extent of liposome permeabilization and provide quantitative means for comparison between different experimental conditions (e.g., BAK mutants with gross or partial variation in activity). Variability in permeabilization of different liposomes is common and our analyses compare among conditions investigated with the same liposomes. […]

[3] = molecular target: T3, I81R BAK (Homo sapiens, UniProt Q16611, I81R); test: Isothermal titration calorimetry with mutant BAK; format: binding; settings: rebuttal, earlier Figures 7c, S10d
T3 construct: To generate tevBAK (residues 22–186), we cleaved off the histidine tag with TEV protease; His tag (vector pNIC28-Bsa4) (N, cleaved yes); made in house; host or cells: E. coli T7 Express pLac I/Y
T3 sequence (Q16611 22-186 I81R): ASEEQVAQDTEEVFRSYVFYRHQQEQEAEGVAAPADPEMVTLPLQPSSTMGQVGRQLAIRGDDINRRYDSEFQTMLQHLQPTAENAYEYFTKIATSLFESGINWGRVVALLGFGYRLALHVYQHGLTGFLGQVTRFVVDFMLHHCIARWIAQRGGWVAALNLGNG
Description: Protein samples were exchanged into 20 mM HEPES, 100 mM NaCl and 1 mM TCEP prior to the experiment. Titrations were performed by first injecting 0.5 μl of 250 or 500 µM BID BH3 peptides into a solution of 20 or 50 µM BAK followed by additional 2 μl injections. […] Results were analyzed using Origin software (OriginLab) provided by MicroCal. Binding constants (KD) and thermodynamic parameters were calculated from the average of two or three individual titrations by fitting the data to a single site binding model using a nonlinear least-squares fitting algorithm.

[4] = molecular target: T4, MEAS-BAK-His6 (Homo sapiens, UniProt Q16611); test: Surface plasmon resonance; format: binding; settings: 20 °C; MEAS-BAK-His6 captured on Ni-NTA HisCap chip; three-fold peptide dilution series injected in triplicate; 1:1 interaction model; read-out: SPR KD
T4 construct: C-terminus truncated recombinant human BAK containing C-terminal 6× histidine tag (MEAS-BAK); made in house; host or cells: E. coli T7 Express pLac I/Y
T4 sequence (Q16611 1-186 limits assumed): T1 sequence (Q16611 1-186 limits assumed)
Description: We conducted SPR experiments at 20 °C using a Pioneer FE optical biosensor (ForteBio) amd histidine-tagged MEAS-BAK-His6 immobilized on polycarboxylate hydrogel-coated gold chips preimmobilized with nitrilotriacetic acid (HisCap chips; ForteBio). We primed the chip in chelating buffer (10 mM HEPES pH 7.4, 150 mM NaCl, 50 µM EDTA, 0.005% Tween20) and preconditioned it at 10 µL/min with three 60 s injections of wash buffer (10 mM HEPES pH 8.3, 150 mM NaCl, 350 mM EDTA, 0.05% Tween20) and one 60 s injection of chelating buffer before charging with a 60 s injection of 500 µM NiCl2 in chelating buffer. After priming into binding buffer (20 mM HEPES pH 8.0, 200 mM NaCl, 1 mM TCEP, 0.01% Tween20), we injected BAK to achieve ~500 RU of captured protein. As reference cell, we charged one flow cell on the chip with Ni^2+ without adding protein. […] We included a series of buffer-only (blank) injections throughout the experiment to account for instrumental noise. […] We processed, double-referenced, solvent corrected, and analyzed the data using the software package Qdat (version 4.3.1.2, ForteBio). We determined kinetic rate constants and affinities by fitting the data to a 1:1 interaction model.

[5] = tested on: BCL2allKO HCT116 cells reconstituted with Dox-inducible mC-BAK; test: Dox-induced cell death by IncuCyte imaging of SYTOX Green uptake (autoactivation); format: cell-based, human; settings: qVD 40 µM
Text: For mammalian cell culture experiments, we cloned the full length human BAK cDNA into pCR 2.1 TOPO vector, mutated BAK as needed, and PCR amplified the BAK gene for cloning into the BamHI and NotI sites of pRETROX mCherry vector for retroviral transduction. Amplification and mutagenesis primers are included in Supplementary Table 4. To test direct BAK activation and BAK autoactivation in cells, we produced cells stably expressing mCherry-human BAK (mC-BAK) ± human BID (BID) on a genetic background devoid of the entire BCL-2 family repertoire (all 17 BCL-2 genes), BCL2allKO HCT116, as described by the Xu Luo laboratory. […] To enrich for populations of cells that express mC-BAK, we treated cells with low Dox dose (25 ng/mL) and fluorescence-activated cell sorted (FACS) the mCherry positive cells. […]
We seeded cells in 24-well (100,000 cells/well), 96-well (15,000 cells/well), or 384-well (10,000 cells/well) plates coated with 10 µg/mL fibronectin. After ≥24 h of attachment and recovery, we induced cell death with Dox (up to 1000 ng/mL) and monitored SYTOX Green (25 nM) uptake by Incucyte imaging. […] We monitored Incucyte imaging for up to 48 h, followed by endpoint FACS analysis to measure the extent of cell death based on SYTOX Green positive cells on FACSCalibur systems (BD Biosciences). As expected, cells with low mCherry fluorescence were refractory to cell death.

EC50 [1] [nM] | EC50 [2] [nM] | Kd [3] [nM] | Kd [4] [nM] | Structure (SMILES) | effect on cell death [5]
79 ± 49 | ~5000 | 1340 | 506 ± 1 | CC[C@H](C)[C@H](NC(=O)[C@H](CC(N)=O)NC(=O)[C@H](CCCNC(=N)N)NC(=O)[C@@H](NC(=O)[C@@H](NC(=O)[C@H](CC(=O)O)NC(=O)[C@H](CCC(=O)O)NC(C)=O)[C@@H](C)CC)[C@@H](C)CC)C(=O)N[C@@H](C)C(=O)N[C@@H](CCCNC(=N)N)C(=O)N[C@@H](Cc1c[nH]cn1)C(=O)N[C@@H](CC(C)C)C(=O)N[C@@H](C)C(=O)N[C@@H](CCC(N)=O)C(=O)N[C@@H](CCSC)C(=O)NCC(=O)N[C@@H](CC(=O)O)C(=O)N[C@@H](CO)C(=O)N[C@@H](CCSC)C(=O)N[C@@H](CC(=O)O)C(=O)N[C@@H](CCCNC(=N)N)C(=O)N[C@@H](CO)C(=O)N[C@@H](Cc1c[nH]c2ccccc12)C(N)=O [M(3)W(5)] | –
– | – | – | – | CC(C)[C@H](NC(=O)c1ccc2ccccc2n1)C(=O)N[C@@H](CC(=O)O)C(=O)COc1c(F)cccc1F [qVD, reference compound] | blocked cell death
